Data as given in patent US10968184B2, “Pyrimidine prodrugs for the treatment of viral infections and further diseases” (Janssen Sciences Ireland Unlimited Company, priority 2016, dated 2021).

Columns and labels:
in vitro [1] = conditions: rat, hepatocytes
in vitro [2] = conditions: human, hepatocytes
in vitro [3] = conditions: rat, liver microsomes
[4] = Pharmacokinetics in rat after oral administration; assay type: in vivo; conditions: SD rats, aqueous solution, 5 mg/kg eq dose, prodrug in plasma; for AUC(0-t): read-out: AUC(0-last) prodrug
Experimental: Pharmacokinetics in rat. Prodrugs were administered orally to SD rats using aqueous solution at 5 mg/kg eq dose. Plasma samples were collected at different time points and the concentration of parent and prodrug was analyzed using LC-MS/MS. PK parameters were calculated using Phoenix WinNonlin 6.3. Cmax (ng/mL) and AUC(0-last) (ng·h/mL) were determined for both prodrug and parent.

[5] = system: P-glycoprotein (human MDR1); assay: in vitro; conditions: dog, MDCK-MDR1
in vitro [6] = conditions: simulated gi fluid
in vitro [7] = conditions: human, liver microsomes
in vitro [8] = conditions: rat, plasma
in vitro [9] = conditions: human, plasma
in vitro [10] = conditions: simulated gi fluid; remark: listed apart in the source

What does the source list for `CCCC[C@H](CO)Nc1nc(N(C)C)ncc1OC` [Compound 5, (R)-2-((2-(dimethylamino)-5-methoxypyrimidin-4-yl)amino)hexan-1-ol]?
hepatocyte CLint at 1 μM (in vitro [1]): 280 µL/min/1e6 cells; hepatocyte CLint at 1 μM (in vitro [2]): 80 µL/min/1e6 cells; microsomal CLint at 1 μM (in vitro [3]): 141 µL/min/mg; melting point: 86.1 °C; Cmax [4]: 88 ng/mL; AUC(0-t) [4]: 144 ng·h/mL; Papp A→B [5]: 20 ×10⁻⁶ cm/s; efflux ratio [5]: 3.2; half-life (in vitro [6]): > 6 h; microsomal CLint at 1 μM (in vitro [7]): 14 µL/min/mg; half-life at 1 μM (in vitro [8]): > 30 h; half-life at 1 μM (in vitro [9]): > 30 h; half-life (in vitro [10]): > 6 h

What does the source list for `CCCC[C@H](CO)Nc1nc(NC)ncc1OC` [Compound 6]?
hepatocyte CLint at 1 μM (in vitro [1]): 120 µL/min/1e6 cells; hepatocyte CLint at 1 μM (in vitro [2]): 33 µL/min/1e6 cells; microsomal CLint at 1 μM (in vitro [3]): 25 µL/min/mg; Cmax [4]: 129 ng/mL; AUC(0-t) [4]: 206 ng·h/mL; Papp A→B [5]: 6.8 ×10⁻⁶ cm/s; efflux ratio [5]: 10; half-life (in vitro [6]): > 6 h; microsomal CLint at 1 μM (in vitro [7]): 18 µL/min/mg; half-life at 1 μM (in vitro [8]): > 30 h; half-life at 1 μM (in vitro [9]): > 30 h; half-life (in vitro [10]): > 6 h

Which microsomal CLint at 1 μM (in vitro [3]) does the source give for `CCCC[C@H](CO)Nc1nc(NC2CCCO2)ncc1OC` (stereo partly drawn) [Compound 9, (2R)-2-((5-methoxy-2-((tetrahydrofuran-2-yl)amino)pyrimidin-4-yl)-amino)hexan-1-ol] here?
The microsomal CLint at 1 μM was 27 µL/min/mg.

And the microsomal CLint at 1 μM (in vitro [7])?
The microsomal CLint at 1 μM was 115 µL/min/mg.

And the half-life at 1 μM (in vitro [8])?
The half-life at 1 μM was < 0.4 h.

And the half-life at 1 μM (in vitro [9])?
The half-life at 1 μM was < 0.4 h.

With `CCCC[C@H](CO)Nc1nc(NC2CCCCO2)ncc1OC` (stereo partly drawn) [Compound 10, (2R)-2-((5-methoxy-2-((tetrahydro-2H-pyran-2-yl)amino)pyrimidin-4-yl)-amino)hexan-1-ol] as the compound, how does the microsomal CLint at 1 μM (in vitro [3]) read?
Its microsomal CLint at 1 μM is > 347 µL/min/mg.

What about the Papp A→B [5] of the same compound?
Its Papp A→B is 1.8 ×10⁻⁶ cm/s.

And the efflux ratio [5]?
The efflux ratio was 33.

What about the microsomal CLint at 1 μM (in vitro [7]) of the same compound?
Its microsomal CLint at 1 μM is 88 to 90 µL/min/mg.

What about the half-life at 1 μM (in vitro [8]) of the same compound?
Its half-life at 1 μM is 1.4 h.

What about the half-life at 1 μM (in vitro [9]) of the same compound?
The half-life at 1 μM was 1.4 h.
